# Measured values taken from patent US20100173888A1 (Pfizer Inc, priority 2008, published 2010).
# Where a name gives a salt, the structure may show the parent alone.
# Target: human recombinant H-PGDS (Homo sapiens, UniProt O60760)
# Assay: Fluorescence intensity h-PGDS TBA enzyme assay (PGH2 depletion, MDA/TBA fluorescence)
# Type: biochemical
# Settings: 1:175,000 human recombinant H-PGDS, 42 second reaction, 3-fold serial dilutions, highest concentration typically 1 μM
# Protocol: Fluoresecence Intensity h-PGDSTBA Enzyme Assay
# Prostaglandin D Synthase (PGDS) converts the substrate prostaglandin H2 (PGH2) to prostaglandin D2. The depletion of PGH2 was measured via an Fe(II) reduction of the remaining PGH2 to malondialdehyde (MDA) and 12-HHT. The enzyme assay is based on the quantitative formation of a fluorescent complex from the non-fluorescent compounds MDA and 2-thiobarbituric acid (TBA), substantially as described in U.S. patent application publication US-2004/152148 by Lombardt.
# The enzyme assay (31 μls) contained 100 mM Tris base pH 8.0, 100 μM MgCl2, 0.1 mg/ml IgG Rabbit serum, 5.0 μM PGH2 (Cayman; ethanol solution, #17020), 2.5 mM L-Glutathione (Sigma; reduced form. #G4251), 1:175,000 human recombinant H-PGDS (from 1 mg/ml), 0.5% DMSO and inhibitor (varying concentration). Three μls of diluted inhibitor (dissolved in DMSO) was plated into a 384-well assay plate followed by a 25 μl addition of an enzyme solution containing h-PGDS, Tris, MgCl2, IgG and L-Glutathione. After preincubation of inhibitor and enzyme solution for 10 minutes at room temperature, the reaction was initiated with a 3 μl addition of substrate solution in 10 mM HCl. The reaction was terminated after 42 second by the addition (3 μl) of stop buffer containing FeCl2 and citric acid. After addition of 45.5 μls of TBA plates were heated for one hour in a 70° C. oven. Plates were cooled at room temperature overnight and read on a plate reader the next day with excitation @ 530 nm and emission @ 565 nm.
# IC50' s of inhibitors were calculated with a 4-parameter fit using 11 inhibitor concentrations in duplicate with 3-fold serial dilutions. Controls on each plate included no inhibitor (zero % effect) and an inhibitor 10-fold in excess of its' IC50 (100% effect). The highest inhibitor concentration tested was typically 1 μM.
# Sequence of human recombinant H-PGDS (O60760 whole entry): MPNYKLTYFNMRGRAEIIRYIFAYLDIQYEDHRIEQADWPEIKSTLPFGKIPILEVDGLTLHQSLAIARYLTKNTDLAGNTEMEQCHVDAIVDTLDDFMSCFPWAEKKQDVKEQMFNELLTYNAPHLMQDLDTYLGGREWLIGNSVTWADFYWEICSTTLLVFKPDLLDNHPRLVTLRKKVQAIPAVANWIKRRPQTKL
row,SMILES,IC50 [nM]
1,"CC(O)C(=O)N[C@H]1CC[C@@H](NC(=O)c2ccc(-c3cccc(F)c3)nc2)CC1 (relative stereo) [Example 222, 6-(3-fluorophenyl)-N-[cis-4-(lactoylamino)cyclohexyl]nicotinamide]",50.8
2,"O=C(N[C@H]1CC[C@H]([C@H](O)C2CC2)CC1)c1ccc(-c2cccc(F)c2)nc1 [Example 212, N-[4-trans-((R)-Cyclopropylhydroxymethyl)cyclohexyl]-6-(3-fluorophenyl)nicotinamide]",2.3
3,"CN(C)CCCNC(=O)[C@H]1CC[C@H](NC(=O)c2ccc(-c3cccc(F)c3)nc2)CC1 [Example 113A, N-(trans-4-{[3-(dimethylamino)propyl]carbamoyl}cyclohexyl)-6-(3-fluorophenyl)nicotinamide]",21.1
4,"O=C(N[C@H]1CC[C@@H](C(=O)N2CCNCC2)C1)c1ccc(-c2cccc(F)c2)nc1 [Example 176, 6-(3-Fluorophenyl)-N-[(1S,3R)-3-(piperazin-1-ylcarbonyl)cyclopentyl]nicotinamide]",9
5,CN(C)C(=O)CNC(=O)[C@H]1CCC[C@@H](NC(=O)c2ccc(-c3cccc(F)c3)nc2)C1 (relative stereo) [Example 198],19.1
6,"CC(C)(O)C(=O)N[C@H]1CC[C@H](NC(=O)c2ccc(-c3cccc(F)c3)nc2)CC1 [Example 143, 6-(3-Fluorophenyl)-N-{trans-4-[(2-hydroxy-2-methylpropanoyl)amino]cyclohexyl}nicotinamide]",7.2
7,"O=C(NC1CCCC1)c1ccc(-c2cccc(F)c2)nc1 [Example 9, N-Cyclopentyl-6-(3-fluorophenyl)nicotinamide]",7.11
8,"O=C(N[C@@H]1CC[C@H](C(=O)N2CC[C@@H](F)C2)C1)c1ccc(-c2cccc(F)c2)nc1 [Example 180, 6-(3-Fluorophenyl)-N-[(1R,3S)-3-{[(3R)-3-fluoropyrrolidin-1-yl]carbonyl}cyclopentyl]nicotinamide]",8.9
9,"NC(=O)[C@H]1CC[C@@H](NC(=O)c2ccc(-c3cccc(F)c3)nc2)C1 [Example 186, N-[(1R,3S)-3-Carbamoylcyclopentyl]-6-(3-fluorophenyl)nicotinamide]",23.9
10,CC(C)(O)[C@@H]1CCC[C@H](NC(=O)c2ccc(-c3cccc(F)c3)nc2)C1 (relative stereo) [Example 262],81
11,"CN[C@H]1CC[C@H](NC(=O)[C@@H]2CCC[C@H](NC(=O)c3ccc(-c4cccc(F)c4)nc3)C2)CC1 (stereo in doubt) [Example 193, 6-(3-Fluorophenyl)-N-[(1S,3R)-3-{[trans-4-(methylamino)cyclohexyl]carbamoyl}cyclohexyl]nicotinamide]",10.2
12,"O=CN[C@H]1CC[C@H](NC(=O)c2ccc(-c3cccc(F)c3)nc2)CC1 [Example 113O, 6-(3-fluorophenyl)-N-(trans-4-formamidocyclohexyl)nicotinamide]",7.3
13,"COCCNC(=O)[C@@H]1CC[C@H](NC(=O)c2ccc(-c3cccc(F)c3)nc2)C1 [Example 169, 6-(3-Fluorophenyl)-N-{(1S,3R)-3-[(2-methoxyethyl)carbamoyl]cyclopentyl}nicotinamide]",15.1
14,"CN(C)C(=O)[C@@H]1CC[C@H](NC(=O)c2ccc(-c3cccc(F)c3)nc2)C1 [Example 163, N-[(1S,3R)-3-(Dimethylcarbamoyl)cyclopentyl]-6-(3-fluorophenyl)nicotinamide]",6.1
15,CN(C)CCNC(=O)[C@H]1CC[C@@H](NC(=O)c2ccc(-c3cccc(F)c3)nc2)C1 [Example 183],75.2
16,"COc1cccc(-c2ccc(C(=O)NC3CCCc4ccccc43)cn2)c1 (centres unmarked) [Example 121, 6-(3-Methoxyphenyl)-N-(1,2,3,4-tetrahydronaphthalen-1-yl)nicotinamide]",88
17,"CN(C)CC(=O)N[C@H]1CC[C@H](NC(=O)c2ccc(-c3cccc(F)c3)nc2)CC1 [Example 145, N-{trans-4-[(N,N-Dimethylglycyl)amino]cyclohexyl}-6-(3-fluorophenyl)nicotinamide]",11.6
18,"CNCCNC(=O)[C@H]1CCC[C@@H](NC(=O)c2ccc(-c3cccc(F)c3)nc2)C1 (relative stereo) [Example 189, 6-(3-Fluorophenyl)-N-cis-3-{([2-(methylamino)ethyl]carbamoyl}cyclohexyl]nicotinamide]",13.7
19,O=C(N[C@@H]1CCC[C@@H](C(=O)N2CCNCC2)C1)c1ccc(-c2cccc(F)c2)nc1 (relative stereo) [Example 243],29.1

row,SMILES,IC50 [nM]
1,"CC(C)(O)[C@@H]1CC[C@H](NC(=O)c2ccc(-c3cccc(F)c3)nc2)C1 [Example 162, 6-(3-fluorophenyl)-N-[(1S,3R)-3-(1-hydroxy-1-methylethyl)cyclopentyl]nicotinamide]",22.7
2,"NCCC(O)C1CCC(NC(=O)c2ccc(-c3cccc(F)c3)nc2)CC1 (centres unmarked) [Example 154, N-[4-(3-Amino-1-hydroxypropyl)cyclohexyl]6-(3-fluorophenyl)nicotinamide hydrochloride]",40.3
3,"CC(C)(O)C1CCC(NC(=O)c2ccc(-c3cccc(F)c3)nc2)CC1 (centres unmarked) [Example 48, 6-(3-Fluorophenyl)-N-[4-(1-hydroxy-1-methylethyl)cyclohexyl]nicotinamide]",0.614
4,O=C(N[C@@H]1CC[C@H](C(=O)N2CCN(CCO)CC2)C1)c1ccc(-c2cccc(F)c2)nc1 [Example 184],20.3
5,"CN(C)C(=O)N[C@H]1CC[C@@H](NC(=O)c2ccc(-c3cccc(F)c3)nc2)CC1 [Example 234, N-{cis-4-[(Dimethylcarbamoyl)amino]cyclohexyl}-6-(3-fluorophenyl)nicotinamide]",11
6,"NC(=O)[C@@H]1CC[C@H](NC(=O)c2ccc(-c3cccc(F)c3)nc2)C1 [Example 175, N-[(1S,3R)-3-Carbamoylcyclopentyl]-6-(3-fluorophenyl)nicotinamide]",20.2
7,"CNC(=O)N[C@H]1CC[C@@H](NC(=O)c2ccc(-c3cccc(F)c3)nc2)CC1 [Example 236, 6-(3-Fluorophenyl)-N-{cis-4-[(methylcarbamoyl)amino]cyclohexyl}nicotinamide]",5.7
8,"O=C(N[C@H]1CC[C@H](N2CCCC2)CC1)c1ccc(-c2cccc(F)c2)nc1 [Example 213, 6-(3-Fluorophenyl)-N-(trans-4-pyrrolidin-1-ylcyclohexyl)nicotinamide]",36
9,"O=C(NC1(c2ccccn2)CC1)c1ccc(-c2cccc(F)c2)nc1 [Example 1, 6-(3-Fluorophenyl)-N-(1-pyridin-2-ylcyclopropyl)nicotinamide]",64.9
10,O=C(CO)N[C@H]1CCC[C@H](NC(=O)c2ccc(-c3cccc(F)c3)nc2)C1 (relative stereo) [Example 245],21.6
11,"N[C@@H]1[C@H]2CN(C(=O)[C@H]3CCC[C@@H](NC(=O)c4ccc(-c5cccc(F)c5)nc4)C3)C[C@@H]12 [Example 190, N-cis-3-{[(1R,5S,6S)-6-Amino-3-azabicyclo[3.1.0]hex-3-yl]carbonyl}cyclohexyl]-6-(3-fluorophenyl)nicotinamide hydrochloride]",17.5
12,"N[C@@H]1CCC[C@H](NC(=O)c2ccc(-c3cccc(F)c3)nc2)C1 (relative stereo) [Example 200, N-[cis-3-Aminocyclohexyl]-6-(3-fluorophenyl)nicotinamide]",189
13,"Cc1nnc(C[C@H]2CC[C@@H](NC(=O)c3ccc(-c4cccc(F)c4)nc3)CC2)o1 [Example 273, 6-(3-Fluorophenyl)-N-{cis-4-[(5-methyl-1,3,4-oxadiazolyl-2-yl)methyl]cyclohexyl}nicotinamide]",5.4
14,O=C(N[C@@H]1CCC[C@@H](C(=O)N2CCOCC2)C1)c1ccc(-c2cccc(F)c2)nc1 (relative stereo) [Example 241],15.4
15,O=C(N[C@H]1CCC[C@H](CO)C1)c1ccc(-c2cccc(F)c2)nc1 (relative stereo) [Example 250],26.4
16,"CC(C)(O)C(=O)N[C@H]1CCC[C@H](NC(=O)c2ccc(-c3cccc(F)c3)nc2)C1 (relative stereo) [Example 248, 6-(3-Fluorophenyl)-N-trans-[3-(2-hydroxy-2-methylpropionylamino)cyclohexyl]nicotinamide]",10.4
17,"CN1CCN(C(=O)[C@@H]2CC[C@H](NC(=O)c3ccc(-c4cccc(F)c4)nc3)C2)CC1=O [Example 173, 6-(3-Fluorophenyl)-N-{(1S,3R)-3-[(4-methyl-3-oxopiperazin-1-yl)carbonyl]cyclopentyl}nicotinamide]",21.6
18,"O=C(N[C@H]1CC[C@@H](C(=O)NC2CC2)C1)c1ccc(-c2cccc(F)c2)nc1 [Example 160, N-[(1S,3R)-3-(cyclopropylcarbamoyl)cyclopentyl]-6-(3-fluorophenyl)nicotinamide]",11.2
19,"N[C@H]1CCC[C@H](NC(=O)c2ccc(-c3cccc(F)c3)nc2)C1 (relative stereo) [Example 244, N-[trans-3-Aminocyclohexyl]-6-(3-fluorophenyl)nicotinamide]",192
